Measurements: ChEMBL document CHEMBL1151121, “1H-nmr analysis of herbimycins and dihydro-herbimycins” (1988)
Values after ≈ are worked out from the molar mass of the structure shown.

Tests used:
KB = test: Cytotoxicity against human KB cells; type: functional; conditions: read-out: ED50 (the source's name)
P388 = test: Cytotoxicity against mouse P388 cells; type: functional; conditions: read-out: ED50 (the source's name)

`CO[C@H]1/C=C\C=C(/C)C(=O)Nc2cc(O)cc(c2O)C[C@@H](C)C[C@H](OC)[C@H](O)[C@@H](C)/C=C(\C)[C@@H]1OC(N)=O` gave an EC50 (KB) of 3.49 µg/mL (≈ 6.55 µM) and an EC50 (P388) of 0.34 µg/mL (≈ 0.638 µM).

In the case of `CO[C@H]1[C@@H](OC)C[C@H](C)[C@@H](OC)c2cc(O)cc(c2O)NC(=O)/C(C)=C/C=C\[C@H](OC)[C@@H](OC(N)=O)/C(C)=C/[C@@H]1C` [DIHYDRO-HERBIMYCIN A], the EC50 (KB) is reported as 0.3 µg/mL (≈ 0.52 µM) and the EC50 (P388) is reported as 0.022 µg/mL (≈ 0.0381 µM).

`CO[C@H]1/C=C\C=C(/C)C(=O)NC2=CC(=O)C=C(C2=O)[C@H](OC)[C@@H](C)C[C@H](OC)[C@H](O)[C@@H](C)/C=C(\C)[C@@H]1OC(N)=O` [HERBIMYCIN C] showed an EC50 (KB) of 0.12 µg/mL (≈ 0.214 µM) and an EC50 (P388) of 0.17 µg/mL (≈ 0.303 µM).

`CO[C@H]1[C@@H](OC)C[C@H](C)[C@@H](OC)C2=CC(=O)C=C(NC(=O)/C(C)=C/C=C/[C@H](OC)[C@@H](OC(N)=O)/C(C)=C/[C@@H]1C)C2=O` [HERBIMYCIN] showed an EC50 (KB) of 0.12 µg/mL (≈ 0.209 µM) and an EC50 (P388) of 0.0051 µg/mL (≈ 0.00887 µM).
